Test: Stability assessment of pirfenidone formulations at 25°C/60% RH and 40°C/75% RH
Type: physicochemical
Conditions: for Measured Pirfenidone / mOsmol/kg / pH: time zero
[1] = 25° C./60% RH, target 1 mg/mL, 5 mM phosphate buffer pH 6.5 plus 1% (v/v) EtOH, 2% (v/v) PG
[2] = 25° C./60% RH, target 1 mg/mL, 5 mM phosphate buffer pH 6.5 plus 8% (v/v) EtOH, 16% (v/v) PG
[3] = 25° C./60% RH, target 15 mg/mL, 5 mM phosphate buffer pH 6.5 plus 1% (v/v) EtOH, 2% (v/v) PG
[4] = 25° C./60% RH, target 23 mg/mL, 5 mM phosphate buffer pH 6.5 plus 4% (v/v) EtOH, 8% (v/v) PG
[5] = 25° C./60% RH, target 30 mg/mL, 5 mM phosphate buffer pH 6.5 plus 6% (v/v) EtOH, 12% (v/v) PG
[6] = 25° C./60% RH, target 38 mg/mL, 5 mM phosphate buffer pH 6.5 plus 8% (v/v) EtOH, 16% (v/v) PG
[7] = 40° C./75% RH, target 1 mg/mL, 5 mM phosphate buffer pH 6.5 plus 1% (v/v) EtOH, 2% (v/v) PG
[8] = 40° C./75% RH, target 1 mg/mL, 5 mM phosphate buffer pH 6.5 plus 8% (v/v) EtOH, 16% (v/v) PG
[9] = 40° C./75% RH, target 15 mg/mL, 5 mM phosphate buffer pH 6.5 plus 1% (v/v) EtOH, 2% (v/v) PG
[10] = 40° C./75% RH, target 23 mg/mL, 5 mM phosphate buffer pH 6.5 plus 4% (v/v) EtOH, 8% (v/v) PG
[11] = 40° C./75% RH, target 30 mg/mL, 5 mM phosphate buffer pH 6.5 plus 6% (v/v) EtOH, 12% (v/v) PG
[12] = 40° C./75% RH, target 38 mg/mL, 5 mM phosphate buffer pH 6.5 plus 8% (v/v) EtOH, 16% (v/v) PG
[13] = target 1 mg/mL, 5 mM phosphate buffer pH 6.5 plus 1% (v/v) EtOH, 2% (v/v) PG
[14] = target 1 mg/mL, 5 mM phosphate buffer pH 6.5 plus 8% (v/v) EtOH, 16% (v/v) PG
[15] = target 15 mg/mL, 5 mM phosphate buffer pH 6.5 plus 1% (v/v) EtOH, 2% (v/v) PG
[16] = target 23 mg/mL, 5 mM phosphate buffer pH 6.5 plus 4% (v/v) EtOH, 8% (v/v) PG
[17] = target 30 mg/mL, 5 mM phosphate buffer pH 6.5 plus 6% (v/v) EtOH, 12% (v/v) PG
[18] = target 38 mg/mL, 5 mM phosphate buffer pH 6.5 plus 8% (v/v) EtOH, 16% (v/v) PG

## Cc1ccc(=O)n(-c2ccccc2)c1 [pirfenidone, 5-methyl-1-phenyl-2-(1H)-pyridone]
[1]
  Pirfenidone at Time = 0: 1.0 mg/mL
  Pirfenidone at Time = 1 month: 1.0 mg/mL
  Pirfenidone at Time = 3 month: 1.0 mg/mL
  Pirfenidone at Time = 6 month: 1.0 mg/mL
[2]
  Pirfenidone at Time = 0: 1.0 mg/mL
  Pirfenidone at Time = 1 month: 1.0 mg/mL
  Pirfenidone at Time = 3 month: 1.0 mg/mL
  Pirfenidone at Time = 6 month: 1.0 mg/mL
[3]
  Pirfenidone at Time = 0: 16.1 mg/mL
  Pirfenidone at Time = 1 month: 15.1 mg/mL
  Pirfenidone at Time = 3 month: 14.9 mg/mL
  Pirfenidone at Time = 6 month: 15.4 mg/mL
[4]
  Pirfenidone at Time = 0: 24.1 mg/mL
  Pirfenidone at Time = 1 month: 22.1 mg/mL
  Pirfenidone at Time = 3 month: 22.3 mg/mL
  Pirfenidone at Time = 6 month: 23.2 mg/mL
[5]
  Pirfenidone at Time = 0: 30.3 mg/mL
  Pirfenidone at Time = 1 month: 30.1 mg/mL
  Pirfenidone at Time = 3 month: 29.6 mg/mL
  Pirfenidone at Time = 6 month: 31.0 mg/mL
[6]
  Pirfenidone at Time = 0: 38.9 mg/mL
  Pirfenidone at Time = 1 month: 38.3 mg/mL
  Pirfenidone at Time = 3 month: 38.0 mg/mL
  Pirfenidone at Time = 6 month: 39.2 mg/mL
[7]
  Pirfenidone at Time = 0: 1.0 mg/mL
  Pirfenidone at Time = 1 month: 1.0 mg/mL
  Pirfenidone at Time = 3 month: 1.0 mg/mL
  Pirfenidone at Time = 6 month: 1.0 mg/mL
[8]
  Pirfenidone at Time = 0: 1.0 mg/mL
  Pirfenidone at Time = 1 month: 1.0 mg/mL
  Pirfenidone at Time = 3 month: 1.0 mg/mL
  Pirfenidone at Time = 6 month: 1.0 mg/mL
[9]
  Pirfenidone at Time = 0: 16.1 mg/mL
  Pirfenidone at Time = 1 month: 15.1 mg/mL
  Pirfenidone at Time = 3 month: 14.8 mg/mL
  Pirfenidone at Time = 6 month: 15.5 mg/mL
[10]
  Pirfenidone at Time = 0: 24.1 mg/mL
  Pirfenidone at Time = 1 month: 22.4 mg/mL
  Pirfenidone at Time = 3 month: 22.1 mg/mL
  Pirfenidone at Time = 6 month: 23.3 mg/mL
[11]
  Pirfenidone at Time = 0: 30.3 mg/mL
  Pirfenidone at Time = 1 month: 30.3 mg/mL
  Pirfenidone at Time = 3 month: 30.0 mg/mL
  Pirfenidone at Time = 6 month: 31.1 mg/mL
[12]
  Pirfenidone at Time = 0: 38.9 mg/mL
  Pirfenidone at Time = 1 month: 38.4 mg/mL
  Pirfenidone at Time = 3 month: 38.0 mg/mL
  Pirfenidone at Time = 6 month: 37.9 mg/mL
[13]
  Measured Pirfenidone: 1.0 mg/mL
  mOsmol/kg: 452 mOsmol/kg
  pH: 6.69
[14]
  Measured Pirfenidone: 1.0 mg/mL
  mOsmol/kg: 3590 mOsmol/kg
  pH: 6.98
[15]
  Measured Pirfenidone: 16.1 mg/mL
  mOsmol/kg: 512 mOsmol/kg
  pH: 6.65
[16]
  Measured Pirfenidone: 24.1 mg/mL
  pH: 6.78
[17]
  Measured Pirfenidone: 30.3 mg/mL
  mOsmol/kg: 2863 mOsmol/kg
  pH: 6.90
[18]
  Measured Pirfenidone: 38.9 mg/mL
  mOsmol/kg: 3750 mOsmol/kg
  pH: 7.04
